Values quoted from earlier work as cited in patent publication US20140135284A1, “COMPOSITION OF AQUEOUS BUFFER SOLUTION FOR THE TREATMENT OF CELLULAR ENVIRONMENT AND ION CHANNELS AND METHODS FOR USING SAME” (priority 2007, published 2014).

Test system: inflammation
Details: acid species studied, small reductions in pH

| Structure (SMILES) | effect on inflammation |
| --- | --- |
| Cl [Hydrochloric acid] | upregulated inflammation |
| CC(O)C(=O)O (centres unmarked) [Lactic acid] | effective anti-inflammatory |
